The text below walks through data of US20260027104A1, “NOVEL NAPHTHYL AND ISOQUINOLINE SULFONAMIDE DERIVATIVES” (Hoffmann-La Roche Inc., priority 2022, published 2026).

The structures appear in SMILES notation.

human GPR17 short isoform, sequence (Q13304 29-367): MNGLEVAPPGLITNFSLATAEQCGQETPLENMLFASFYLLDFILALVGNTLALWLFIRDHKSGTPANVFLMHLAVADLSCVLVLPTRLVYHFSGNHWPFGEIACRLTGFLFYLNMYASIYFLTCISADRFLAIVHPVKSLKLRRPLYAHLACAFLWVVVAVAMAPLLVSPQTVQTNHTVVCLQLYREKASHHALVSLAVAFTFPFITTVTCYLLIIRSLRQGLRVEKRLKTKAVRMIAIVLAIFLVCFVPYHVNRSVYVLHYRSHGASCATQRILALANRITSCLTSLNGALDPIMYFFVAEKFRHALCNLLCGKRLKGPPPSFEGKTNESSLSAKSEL

For this assay, the target named is human GPR17 short isoform (Homo sapiens, UniProt Q13304). The assay can be described thus: hGPR17 cAMP assay (GPR17 cAMP Assay Protocol, antagonist mode). The assay is classed as cell-based. Particulars: CHO-K1 cells stably expressing untagged human GPR17 short isoform; EC80 of agonist MDL29,951; forskolin 15 μM; 30 min, room temperature; TR-FRET cAMP readout. The protocol: GPR17 cAMP Assay Protocol:
CHO-K1 cells stably expressing vector containing untagged human GPR17 short isoform (Roche) were cultured at 37° C./5% CO2 in DMEM (Dulbecco's Modified Eagle Medium):F-12 (1:1) supplemented with 10% foetal bovine serum and 400 μg/ml Geneticin.
Changes in intracellular cyclic adenosine monophosphate (cAMP) levels were quantified using the Nano-TRF Detection Assay kit (Roche Diagnostics, Cat. No. 05214386001). This assay allows for direct cAMP quantification in a homogeneous solution. cAMP is detected based on time-resolved fluorescence energy transfer (TR-FRET) and competitive binding of ruthenylated cAMP and endogenous cAMP to an anti-cAMP monoclonal antibody labeled with AlexaFluor-700. The Ruthenium complex serves as the FRET donor and transfers energy to AlexaFluor-700. The FRET signal is inversely proportional to the cAMP concentration.
CHO-GPR17S cells were detached with Accutase and resuspended in assay buffer consisting of Hank's Balanced Salt Solution (HBSS), 10 mM HEPES (4-(2-hydroxyethyl) piperazine-1-ethanesulfonic acid solution) and 0.1% bovine serum albumin (pH 7.4). The cells were seeded in black 384-well plates (Corning) at a density of 10′000 cells/20 μl assay buffer until the addition of compounds.
Test antagonist compounds were serially diluted in dimethyl sulfoxide (DMSO) and spotted in 384-well plates. The compounds were then diluted in BSS buffer supplemented with an EC80 concentration of MDL29,951 (3-(2-Carboxy-4,6-dichloroindol-3-yl)propionic acid) (GPR17 agonist) plus 3-Isobutyl-1-methylxanthine (IBMX) (0.5 mM final concentration) and added to the cells at room temperature. Forskolin (15 μM final concentration) was added 5 minutes after the test compounds and the cells were incubated at room temperature for 30 minutes. The assay was stopped by adding cAMP detection mix (containing detergents for cell lysis) for 90 minutes at room temperature.
Cellular cAMP was measured using a Paradigm reader (Molecular Devices). The raw data was used to calculate the FRET signal based on the assay's P-factor as per cAMP kit instructions. The data was normalized to the maximal activity of a reference antagonist and dose response curves were fitted to the percent activity of the test compounds using a sigmoidal dose response model (Genedata Screener).
Results in the hGPR17 cAMP assay are provided for compounds of formula I in Table 1
For orientation: cAMP levels reflect the balance of adenylyl cyclase and phosphodiesterase activity.
As usually defined, the IC50 is the midpoint of a concentration-inhibition curve. Higher therefore signals weaker potency. With `N#CCc1cc(F)c(NS(=O)(=O)c2cccc3nc(Cl)ccc23)cc1F` [Example 3, 2-chloro-N-[4-(cyanomethyl)-2,5-difluoro-phenyl]quinoline-5-sulfonamide], the IC50 came out at 217 nM.

`N#CCc1cc(F)c(NS(=O)(=O)c2cnc(O)c3c(Cl)cccc23)cc1F` [Example 20, 8-chloro-N-[4-(cyanomethyl)-2,5-difluoro-phenyl]-1-hydroxy-isoquinoline-4-sulfonamide] came in with an IC50 of 327 nM.

`N#CCc1cc(F)c(NS(=O)(=O)c2c[nH]c(=O)c3c(Cl)c(Cl)ccc23)cc1F` [Example 38, 7,8-dichloro-N-[4-(cyanomethyl)-2,5-difluoro-phenyl]-1-keto-2H-isoquinoline-4-sulfonamide] returned an IC50 of 182 nM. To `COc1nc(OCC(F)F)c(F)cc1NS(=O)(=O)c1cncc2cc(Cl)ccc12` [Example 15, 7-chloro-N-[6-(2,2-difluoroethoxy)-5-fluoro-2-methoxy-3-pyridyl]isoquinoline-4-sulfonamide] belongs 11 nM; to `COc1nc(OCC(F)F)c(F)cc1NS(=O)(=O)c1cnc(N(C)C)c2cc(Cl)ccc12` [Example 41, 7-chloro-N-[6-(2,2-difluoroethoxy)-5-fluoro-2-methoxy-3-pyridyl]-1-(dimethylamino)isoquinoline-4-sulfonamide], 61 nM; to `COc1ncc(S(=O)(=O)Nc2cc(F)c(CC#N)cc2F)c2ccc(Cl)cc12` [Example 49, 7-chloro-N-[4-(cyanomethyl)-2,5-difluoro-phenyl]-1-methoxy-isoquinoline-4-sulfonamide], 905 nM. To `COc1nc(OC(F)F)c(F)cc1NS(=O)(=O)c1cccc2nc(Cl)ccc12` [Example 6, 2-chloro-N-[6-(difluoromethoxy)-5-fluoro-2-methoxy-3-pyridyl]quinoline-5-sulfonamide] belongs 49 nM. Consider `COc1nc(OCC(F)F)c(F)cc1NS(=O)(=O)c1cccc2c(N(C)C)cccc12` [Example 40, N-[6-(2,2-difluoroethoxy)-5-fluoro-2-methoxy-3-pyridyl]-5-(dimethylamino)naphthalene-1-sulfonamide], for which the IC50 was found to be 13 nM.

Molecule `COc1nc(OCC(F)F)c(F)cc1NS(=O)(=O)c1cccc2nc(Cl)ccc12` [Example 10, 2-chloro-N-[6-(2,2-difluoroethoxy)-5-fluoro-2-methoxy-3-pyridyl]quinoline-5-sulfonamide] returned an IC50 of 28 nM.

In turn, `COc1nc(NS(=O)(=O)c2cccc3nc(Cl)ccc23)nc(OC)c1CC(F)F` [Example 8, 2-chloro-N-[5-(2,2-difluoroethyl)-4,6-dimethoxy-pyrimidin-2-yl]quinoline-5-sulfonamide] displayed an IC50 of 174 nM. `COc1nc(NS(=O)(=O)c2c[nH]c(=O)c3cc(Cl)ccc23)nc(OC)c1CC(F)F` [Example 24, 7-chloro-N-[5-(2,2-difluoroethyl)-4,6-dimethoxy-pyrimidin-2-yl]-1-keto-2H-isoquinoline-4-sulfonamide] had an IC50 of 278 nM. With `COc1nc(CC#N)c(F)cc1NS(=O)(=O)c1cccc2nc(Cl)ccc12` [Example 5, 2-chloro-N-[6-(cyanomethyl)-5-fluoro-2-methoxy-3-pyridyl]quinoline-5-sulfonamide] the figure was 19 nM; with `COc1nc(NS(=O)(=O)c2cccc3nc(Cl)ccc23)nc(OC)c1OC(F)F` [Example 51, 2-chloro-N-[5-(difluoromethoxy)-4,6-dimethoxy-pyrimidin-2-yl]quinoline-5-sulfonamide], 448 nM; with `O=c1[nH]cc(S(=O)(=O)Nc2cc(F)c(OC(F)F)nc2OC(F)F)c2ccc(Cl)cc12` [Example 27, N-[2,6-bis(difluoromethoxy)-5-fluoro-3-pyridyl]-7-chloro-1-keto-2H-isoquinoline-4-sulfonamide], 32 nM.

Consider `CN(C)c1ccc2c(S(=O)(=O)Nc3cc(F)c(CC#N)cc3F)cccc2n1` [Example 32, N-[4-(cyanomethyl)-2,5-difluoro-phenyl]-2-(dimethylamino)quinoline-5-sulfonamide], for which the IC50 was found to be 238 nM.

Molecule `COc1nc(OCC(F)F)c(F)cc1NS(=O)(=O)c1cccc2ccc(Cl)cc12` [Example 19, 7-chloro-N-[6-(2,2-difluoroethoxy)-5-fluoro-2-methoxy-3-pyridyl]naphthalene-1-sulfonamide] gave an IC50 of 89 nM. With `CNc1cc(S(=O)(=O)Nc2cc(F)c(OCC(F)F)nc2OC)c2ccc(Cl)cc2n1` [Example 45, 7-chloro-N-[6-(2,2-difluoroethoxy)-5-fluoro-2-methoxy-3-pyridyl]-2-(methylamino)quinoline-4-sulfonamide] the figure was 72 nM. To `N#CCc1cc(F)c(NS(=O)(=O)c2c[nH]c(=O)c3ccccc23)cc1F` [Example 52, N-(4-(cyanomethyl)-2,5-difluorophenyl)-1-oxo-1,2-dihydroisoquinoline-4-sulfonamide] belongs 594 nM; to `COc1nc(OC(F)F)c(F)cc1NS(=O)(=O)c1c[nH]c(=O)c2cc(Cl)ccc12` [Example 23, 7-chloro-N-[6-(difluoromethoxy)-5-fluoro-2-methoxy-3-pyridyl]-1-keto-2H-isoquinoline-4-sulfonamide], 19 nM; to `COc1nc(OCC(F)F)c(F)cc1NS(=O)(=O)c1cn(C)c(=O)c2cc(Cl)ccc12` [Example 36, 7-chloro-N-[6-(2,2-difluoroethoxy)-5-fluoro-2-methoxy-3-pyridyl]-1-keto-2-methyl-isoquinoline-4-sulfonamide], 371 nM.

Turning to `N#CCc1cc(F)c(NS(=O)(=O)c2cncc3cc(Cl)ccc23)cc1F` [Example 12, 7-chloro-N-[4-(cyanomethyl)-2,5-difluoro-phenyl]isoquinoline-4-sulfonamide], the half-maximal inhibitory concentration (IC50) is 260 nM. To `O=S(=O)(Nc1cc(F)c(OC(F)F)nc1OC(F)F)c1cccc2nc(Cl)ccc12` [Example 11, N-[2,6-bis(difluoromethoxy)-5-fluoro-3-pyridyl]-2-chloro-quinoline-5-sulfonamide] belongs 111 nM; to `COc1nc(OC(F)F)c(F)cc1NS(=O)(=O)c1cncc2cc(Cl)ccc12` [Example 13, 7-chloro-N-[6-(difluoromethoxy)-5-fluoro-2-methoxy-3-pyridyl]isoquinoline-4-sulfonamide], 92 nM. In turn, `COc1nc(OCC(F)F)c(F)cc1NS(=O)(=O)c1cccc2nc(N(C)C)ccc12` [Example 31, N-[6-(2,2-difluoroethoxy)-5-fluoro-2-methoxy-3-pyridyl]-2-(dimethylamino)quinoline-5-sulfonamide] showed an IC50 of 65 nM.

Take `CN(C)c1ncc(S(=O)(=O)Nc2cc(F)c(CC#N)cc2F)c2ccc(Cl)cc12` [Example 42, 7-chloro-N-[4-(cyanomethyl)-2,5-difluoro-phenyl]-1-(dimethylamino)isoquinoline-4-sulfonamide]: the IC50 was 423 nM. With `COc1nc(NS(=O)(=O)c2c[nH]c(=O)c3cc(Cl)ccc23)c(F)cc1OCC(F)F` [Example 25, 7-chloro-N-[5-(2,2-difluoroethoxy)-3-fluoro-6-methoxy-2-pyridyl]-1-oxo-2H-isoquinoline-4-sulfonamide] the figure was 50 nM; with `COc1nc(OCC(F)F)c(F)cc1NS(=O)(=O)c1cccc2c(Cl)cccc12` [Example 18, 5-chloro-N-[6-(2,2-difluoroethoxy)-5-fluoro-2-methoxy-3-pyridyl]naphthalene-1-sulfonamide], 43 nM. With `COc1nc(OCC(F)F)c(F)cc1NS(=O)(=O)c1cc(=O)n(C)c2cc(Cl)ccc12` [Example 37, 7-chloro-N-[6-(2,2-difluoroethoxy)-5-fluoro-2-methoxy-3-pyridyl]-2-keto-1-methyl-quinoline-4-sulfonamide] the figure was 246 nM; with `COc1nc(OCC(F)F)c(F)cc1NS(=O)(=O)c1cncc2c(C#N)c(Cl)ccc12` [Example 46, 7-chloro-8-cyano-N-[6-(2,2-difluoroethoxy)-5-fluoro-2-methoxy-3-pyridyl]isoquinoline-4-sulfonamide], 253 nM; with `CNc1ncc(S(=O)(=O)Nc2cc(F)c(CC#N)cc2F)c2ccc(Cl)cc12` [Example 44, 7-chloro-N-[4-(cyanomethyl)-2,5-difluoro-phenyl]-1-(methylamino)isoquinoline-4-sulfonamide], 315 nM. To `N#CCc1cc(F)c(NS(=O)(=O)c2c[nH]c(=O)c3nc(Cl)ccc23)cc1F` [Example 28, 2-chloro-N-[4-(cyanomethyl)-2,5-difluoro-phenyl]-8-oxo-7H-1,7-naphthyridine-5-sulfonamide] belongs 955 nM.
